In patent publication US20210032291A1, “Compstatin Analogs With Improved Pharmacokinetic Properties” (The Trustees of the University of Pennsylvania, priority 2011, published 2021):
In brackets after ≈: the same amount, converted by molar mass.

Assays:
in vivo = assay: in vivo; set-up: species or system baboons (P. Anubis); conditions: baboon (P. Anubis), iv, 10 mg
Protocol: Juvenile baboons (P. Anubis, Baboon Research Resources, University of Oklahoma) weighing 5-8 kg were used. Two baboons were used for the study, one for each compound. Each animal received a bolus dose of peptide (10 mg) by injection through the peripheral vein. Blood samples for the LC-MS/MS assay were collected in 1-ml plastic tubes containing […] lepirudin, and centrifuged at 2000 g for 20 min at 4° C. for plasma separation. Plasma samples were stored at −70° C. Blood samples were collected at pre-determined time intervals after injection of Cp30 (SEQ ID NO:7) or the Cp30 (SEQ ID NO:7)-ABM2 conjugate. Samples were treated with SPE and analyzed using LC-MS/MS. Calibration curves were created using standard peptides at various concentrations in plasma to determine peptide concentration in each sample.
Extraction of compstatin analogs from plasma samples by SPE. […] Samples were diluted with 4% H3PO4. After loading a sample, washing was carried out with 500 μL of water and 10% ACN with 0.1% formic acid. […] Samples for LC-MS were diluted 1:2 to 1:11 in milli-Q water with 10% ACN with 0.1% formic acid.
LC-MS/MS analysis. […] Each sample was injected in triplicate. […] The analytical column temperature was held at 40° C. Peptides were separated at flow rate 0.15 mL/min. The gradient was linear 15-55% B (0.1% formic acid in acetonitrile) over 7 min.

C3 = molecular target: T1, C3 (Homo sapiens, UniProt P01024); assay: Plasma protein binding in human plasma (PEG precipitation, Mono Q FPLC, UPLC-MS); assay type: in vitro ADME; conditions: 20 μM peptide, Mono Q fractions
T1 construct: from tissue; host or cells: fresh human plasma (lepirudin-anticoagulated)
T1 sequence (P01024 23-1663): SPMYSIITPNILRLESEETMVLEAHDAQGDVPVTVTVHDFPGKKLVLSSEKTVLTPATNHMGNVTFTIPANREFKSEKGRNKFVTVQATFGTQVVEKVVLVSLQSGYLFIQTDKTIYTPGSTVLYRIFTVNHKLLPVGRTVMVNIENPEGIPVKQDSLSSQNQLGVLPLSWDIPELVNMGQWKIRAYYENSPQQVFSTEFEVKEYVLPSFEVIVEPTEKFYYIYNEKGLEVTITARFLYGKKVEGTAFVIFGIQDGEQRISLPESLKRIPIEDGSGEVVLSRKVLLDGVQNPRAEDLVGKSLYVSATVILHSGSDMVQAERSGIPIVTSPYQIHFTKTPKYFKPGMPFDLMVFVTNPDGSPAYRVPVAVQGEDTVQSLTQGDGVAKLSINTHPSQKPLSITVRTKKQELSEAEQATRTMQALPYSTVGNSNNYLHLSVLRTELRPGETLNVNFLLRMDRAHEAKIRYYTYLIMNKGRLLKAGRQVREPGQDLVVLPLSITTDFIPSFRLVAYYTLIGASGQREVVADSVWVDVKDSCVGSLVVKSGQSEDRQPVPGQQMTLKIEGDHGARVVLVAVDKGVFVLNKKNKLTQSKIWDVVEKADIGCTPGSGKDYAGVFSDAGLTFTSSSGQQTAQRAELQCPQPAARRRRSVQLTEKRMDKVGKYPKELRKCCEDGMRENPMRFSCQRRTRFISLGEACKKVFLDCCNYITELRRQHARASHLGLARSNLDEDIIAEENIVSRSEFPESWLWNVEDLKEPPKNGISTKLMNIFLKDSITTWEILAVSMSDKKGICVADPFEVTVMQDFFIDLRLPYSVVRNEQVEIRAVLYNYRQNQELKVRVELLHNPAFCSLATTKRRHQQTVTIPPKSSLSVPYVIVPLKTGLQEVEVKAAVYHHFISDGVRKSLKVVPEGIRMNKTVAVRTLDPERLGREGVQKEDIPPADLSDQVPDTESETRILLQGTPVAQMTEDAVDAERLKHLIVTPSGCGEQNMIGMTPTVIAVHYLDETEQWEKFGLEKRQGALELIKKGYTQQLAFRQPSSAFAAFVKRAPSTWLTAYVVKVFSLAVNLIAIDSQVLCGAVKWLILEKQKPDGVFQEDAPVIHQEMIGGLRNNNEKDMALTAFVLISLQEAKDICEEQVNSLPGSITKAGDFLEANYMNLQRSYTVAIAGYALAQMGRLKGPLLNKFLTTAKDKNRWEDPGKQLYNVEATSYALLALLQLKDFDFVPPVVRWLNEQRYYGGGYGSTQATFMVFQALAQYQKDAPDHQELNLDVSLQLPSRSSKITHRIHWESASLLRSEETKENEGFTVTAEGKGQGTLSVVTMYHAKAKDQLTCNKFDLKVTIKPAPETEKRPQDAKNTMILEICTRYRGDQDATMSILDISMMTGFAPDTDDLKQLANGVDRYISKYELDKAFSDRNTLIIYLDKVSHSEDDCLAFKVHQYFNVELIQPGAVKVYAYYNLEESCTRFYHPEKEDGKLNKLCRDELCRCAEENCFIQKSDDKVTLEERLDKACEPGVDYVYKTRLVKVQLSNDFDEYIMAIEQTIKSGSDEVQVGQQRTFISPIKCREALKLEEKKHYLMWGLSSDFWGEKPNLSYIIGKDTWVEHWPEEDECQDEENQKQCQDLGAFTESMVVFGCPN
Protocol: Plasma protein binding. Cp30 (SEQ ID NO:7) was spiked in 500 μL of fresh human plasma containing lepirudin (3.75 units/nil) so that the final peptide concentration was 20 μM (C3: 1.2 mg/mL, 6.4 μm). A control sample was prepared in the same way using Cp30 (SEQ ID NO:7) and milli-Q water to determine the area of peptide in UPLC-MS at 1 μM. The plasma sample was equilibrated at room temperature for 10 min. Then, 500 μL of 30% PEG in milli-Q water (MW3350) was slowly added to the plasma sample while mixing. The mixture was centrifuged at 14000 rpm for 10 min to separate the supernatant. The pellet was dissolved in 1000 μL of FPLC buffer A and separated by FPLC using Mono Q 5/5 column and fractions was collected at 1 mL per tube. 0.5 mL of each fraction was mixed with same volume off 4% H3PO4 for SPE and UPLC-MS analysis.
UPLC-MS analysis. […] Each sample was injected in quadruplicates. […] The analytical column temperature was held at 40° C.

[1] = Plasma levels and half-life after i.v. injection in cynomolgus monkeys; conditions: 2 mg/kg i.v., terminal log-linear portion (1-24 h)
Protocol: Primate studies and sample collection. Evaluation of plasma half-life and generation of major metabolites was performed at the Simian Conservation Breeding and Research Center (SICONBREC, Makati City, Philippines) in cynomolgus monkeys (Macaca fascicularis). […] Blood samples (1-2 mL) were collected immediately before and at various time points after compound injection (2, 5 and 30 min; 1, 2, 4, 6, and 24 hours) in EDTA-coated Vacutainer tubes to prevent coagulation and complement activation, and centrifuged at ˜800×g for 10 min to obtain plasma. Plasma samples were immediately frozen and stored for further analysis. All NHP studies were performed in accordance with animal welfare laws and regulations.
Analysis of plasma samples. Prior to analysis by UPLC-MS, compstatin analogs in the plasma samples were extracted by solid phase extraction (SPE) in a 96-well plate format (HLB Oasis 30 μm, 10 mg; Waters, Milford, Mass.). […] Eluted peptides were directly analyzed by HDMS; the ESI source capillary voltage was set to 3.2 kV, the cone voltage to 30 V and the source temperature to 120° C. […]
Determination of plasma half-life. […] All calibration samples were subjected to SPE and measured using UPLC-HDMS as described above. […] For the pharmacokinetic analysis, the plasma concentration (Cp) at each time point was calculated from the extracted peak area of each peptide using the corresponding standard curve.

C3b = molecular target: T2, C3b (Homo sapiens, UniProt P01024); assay: SPR kinetic analysis of binding to immobilized C3b (Biacore, single cycle kinetics); conditions: Table 1, N-terminal analogs
T2 construct: Biotinylated C3b was captured site-specifically on a streptavidin chip
T2 sequence (P01024 23-667 limits assumed): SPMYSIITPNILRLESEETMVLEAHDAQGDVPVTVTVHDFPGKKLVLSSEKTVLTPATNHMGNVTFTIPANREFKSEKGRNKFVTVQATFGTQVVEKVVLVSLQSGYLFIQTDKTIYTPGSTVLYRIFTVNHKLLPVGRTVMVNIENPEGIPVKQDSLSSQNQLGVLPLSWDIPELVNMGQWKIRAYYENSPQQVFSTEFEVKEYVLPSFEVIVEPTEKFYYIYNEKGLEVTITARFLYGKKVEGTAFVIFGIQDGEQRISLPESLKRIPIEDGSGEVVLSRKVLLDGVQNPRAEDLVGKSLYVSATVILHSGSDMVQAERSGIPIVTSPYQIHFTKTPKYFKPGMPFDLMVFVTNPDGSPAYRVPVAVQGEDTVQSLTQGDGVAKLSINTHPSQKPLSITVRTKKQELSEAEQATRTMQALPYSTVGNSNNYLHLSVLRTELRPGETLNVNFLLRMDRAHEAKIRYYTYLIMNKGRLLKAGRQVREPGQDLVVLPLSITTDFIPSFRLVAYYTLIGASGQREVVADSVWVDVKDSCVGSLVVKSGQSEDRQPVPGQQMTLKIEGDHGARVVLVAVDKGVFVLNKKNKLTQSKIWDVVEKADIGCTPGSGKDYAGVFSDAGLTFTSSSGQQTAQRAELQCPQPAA
T2 sequence (P01024 749-1663 partner limits assumed): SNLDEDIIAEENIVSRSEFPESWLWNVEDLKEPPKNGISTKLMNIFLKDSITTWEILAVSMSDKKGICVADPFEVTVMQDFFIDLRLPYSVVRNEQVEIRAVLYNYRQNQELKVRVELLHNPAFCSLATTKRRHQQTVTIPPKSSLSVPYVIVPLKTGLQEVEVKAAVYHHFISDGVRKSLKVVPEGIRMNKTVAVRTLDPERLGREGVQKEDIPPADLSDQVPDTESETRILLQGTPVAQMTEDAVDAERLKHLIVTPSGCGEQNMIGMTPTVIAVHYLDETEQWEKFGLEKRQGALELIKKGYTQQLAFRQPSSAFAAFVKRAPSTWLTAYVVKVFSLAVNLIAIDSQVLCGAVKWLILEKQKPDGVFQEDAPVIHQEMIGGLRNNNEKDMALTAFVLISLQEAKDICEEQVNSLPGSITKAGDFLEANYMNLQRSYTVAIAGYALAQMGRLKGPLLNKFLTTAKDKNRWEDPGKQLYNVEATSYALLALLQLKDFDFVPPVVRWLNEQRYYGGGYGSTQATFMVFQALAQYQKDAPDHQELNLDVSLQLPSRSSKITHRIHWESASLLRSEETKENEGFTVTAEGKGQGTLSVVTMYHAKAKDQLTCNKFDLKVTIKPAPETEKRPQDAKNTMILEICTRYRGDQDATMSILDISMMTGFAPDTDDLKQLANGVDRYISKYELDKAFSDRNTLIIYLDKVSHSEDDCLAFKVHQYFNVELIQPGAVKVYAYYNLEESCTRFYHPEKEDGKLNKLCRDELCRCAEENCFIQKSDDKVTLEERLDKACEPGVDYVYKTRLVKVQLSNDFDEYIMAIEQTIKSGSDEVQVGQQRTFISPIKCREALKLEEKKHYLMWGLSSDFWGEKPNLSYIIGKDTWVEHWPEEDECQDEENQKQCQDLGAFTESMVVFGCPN
Protocol: SPR analysis. The interaction of the compstatin analogs with C3b was characterized using a Biacore 3000 instrument (GE Healthcare, Corp., Piscataway, N.J.). The running buffer was PBS, pH 7.4 (10 mM sodium phosphate, 150 mM NaCl) with 0.005% Tween-20. Biotinylated C3b was captured site-specifically on a streptavidin chip at about 3000 and 5000 RU density; two untreated flow cells were used as reference surface. For kinetic analysis, sets of five increasing concentrations of a particular compound were injected over the chip surface one after the other in a single cycle. […] Processed biosensor data were globally fitted to a 1:1 Langmuir binding model (kindly provided by GE Helthcare), and the equilibrium dissociation constant (KD) was calculated from the equation KD=kd/ka. Each assay was performed at least twice.

[2] = Solubility in WFI and DPBS; UPLC C18 retention time as hydrophobicity
Protocol: Approximately 5 mg of each peptide (acetate form) was weighed out into separate LoBind Eppendorf tubes and 50 μL water for injection (WFI) was added to each tube. Each sample was centrifuged at 13000 rpm for 2 min and diluted for measuring the optical density (OD) at 280 nm using a NanoDrop 2000 spectrophotometer (ThermoScientific, Wilmington, Del.). Each concentrated sample was diluted 1:20 into Dulbecco's phosphate buffered saline (DPBS, without potassium and calcium; Invitrogen, Carlsbad, Calif.). The samples were monitored for precipitation, and each sample was vortexed for 5 min and centrifuged at 13000 rpm for 2 min. The OD of each DPBS supernatant was measured to determine peptide concentration at saturation.
In addition, the ultra performance liquid chromatography (UPLC) retention time of these peptides on a C18 column was measured to reflect their apparent relative hydrophobicity (Table 3).

[3] = test system: classical pathway of complement; assay: ELISA inhibition of classical pathway complement activation; assay type: biochemical; conditions: read-out: IC50, peptide concentration to reach 50% inhibition of classical pathway complement activation; Table 1
Protocol: Inhibition of complement activation. The ability of the compstatin analogs to inhibit the activation of the classical pathway of complement was assessed by ELISA as described elsewhere (Katragadda et al., 2006, supra; Mallik et al., 2005, supra). The percent inhibition was plotted against the peptide concentration, and the resulting data set was fitted to the logistic dose-response function using Origin 8.0 software. IC50 values were obtained from the fitted parameters that produced the lowest χ2 value. Each analog was assayed at least three times.

[4] = Stability in human plasma at 37° C. (SPE, UPLC-MS); conditions: fresh human plasma
Protocol: Plasma stability. Fresh human plasma containing lepirudin (3.75 units/ml) was incubated at 37° C. with Cp30 (SEQ ID NO:7), Cp40 (SEQ ID NO:18) or control peptide 2B at a final concentration of 20 μM each. Samples of 100 μL were taken for solid phase extraction. A 96-well plate HLB Oasis 30 μm 10 mg (Waters, Milford, Mass.) was employed for extraction. The SPE material was conditioned by addition of 500 μL each of methanol and ACN followed by addition of 500 μL of milli-Q water. Sample was diluted 1:1 with 4% H3PO4. After loading the sample, washing was carried out twice with 500 μL of 10% ACN in 0.1% formic acid. Sample was eluted with 200 μL of 65% ACN in 0.1% formic acid and collected in the Eppendorf LoBind collection plate. Sample for UPLC-MS was diluted 1:10 in milli-Q water with 0.1% formic acid. Cp20 (SEQ ID NO:3) was spiked in each sample before SPE as an internal standard.
UPLC-MS analysis. UPLC-MS analysis was performed on a SYNAPT HDMS (Waters, Milford, Mass.) equipped with an ESI source controlled by MassLynx 4.1 software (Waters). Each sample was injected in quadruplicates. An online ACQUITY UPLC (Waters) system was used for peptide separation by reversed-phase liquid chromatography. The capillary voltage was 3.2 kV, the cone voltage was 30 V and the source temperature was 120° C. [Glu1]-fibrinogen peptide was used for lock-mass correction with a sampling rate of 30 s. […]

Which half-life (in vivo) does the source give for CC[C@H](C)[C@H](NC(=O)CNC)C(=O)N[C@H]1CSSC[C@@H](C(=O)N(C)[C@H](C(N)=O)[C@@H](C)CC)NC(=O)[C@H](CCCNC(=N)N)NC(=O)[C@H](Cc2c[nH]cn2)NC(=O)[C@H](C)NC(=O)CN(C)C(=O)[C@H](Cc2c[nH]c3ccccc23)NC(=O)[C@H](CC(=O)O)NC(=O)[C@H](CCC(N)=O)NC(=O)[C@H](Cc2cn(C)c3ccccc23)NC(=O)[C@H](C(C)C)NC1=O [peptide 3, Sar-Ile-[Cys-Val-Trp(Me)-Gln-Asp-Trp-Sar-Ala-His-Arg-Cys]-mIle-NH2] here?
The half-life was 5 h.

And the “Fraction of peptide co-eluted with C3” value (C3)?
The value was 88.0%.

What about the “Fraction of peptide co-eluted with C3c” value (C3) of the same compound?
The value was 4.5%.

What about the “Fraction of peptide located in the flow-through” value (C3) of the same compound?
The value was 7.5%.

What about the Plasma half-life [1] of the same compound?
The Plasma half-life was 10.1 h.

What about the “ka: association rate” value (C3b) of the same compound?
The value was 1.9 ± 0.5 10^6/Ms.

What about the Kd (C3b; read-out: KD: binding constant from SPR) of the same compound?
The Kd was 0.0016 µM.

And the koff (C3b; read-out: kd: dissociation rate)?
Its koff is 0.0029 ± 0.0003 s⁻¹.

What about the solubility at 5 min ([2]; Dulbecco's phosphate buffered saline, pH 7.4) of the same compound?
Its solubility at 5 min is 6900 µg/mL (≈ 4.07 mM).

What about the “Hydrophobicity Retention Time” value ([2]; UPLC analysis on a C18 column) of the same compound?
Its value is 4.60 min.

What about the solubility ([2]; water for injection) of the same compound?
Its solubility is > 50000 µg/mL.

And the IC50 [3]?
Its IC50 is 0.082 ± 0.014 µM.

And the remaining at 120 h, 20 μM [4]?
The remaining at 120 h, 20 μM was > 55%.
